Key:
[1] = system: convulsions induced by maximal electroshock (MES); assay: Convulsions induced by maximal electroshock (MES); assay type: in vivo; details: ip; 95% confidence limits in the next column
Experimental: (§1) Effect of MRZ 2/705 on convulsions induced by maximal electroshock (MES). […] The therapeutic index (TI) was also calculated as the ED50 for inhibition of traction reflex (Tract.) impairment or rotarod failure (Rot.) divided by the ED50 for MES-induced seizure-induced convulsions.

[2] = system: rotarod failure (Rot.); assay: Rotarod failure (for therapeutic index); assay type: in vivo; details: therapeutic index: ED50 for rotarod failure divided by ED50 for MES-induced convulsions
Experimental: as §1

[3] = system: amygdala kindled rats; assay: Amygdala kindling model in fully kindled rats; assay type: in vivo, Female Wistar rats
Experimental: The substance MRZ 2/705 was tested in the amygdala kindling model in rats. In this model chronically implanted animals with stimulation and recording electrodes in the amygdala were rendered more susceptible to seizures by repeated initially subconvulsive electrical stimulation (Goddard et al., 1969, Sato el. al, 1990). Once enhanced sensitivity, characterized by generalized motor seizures, has developed, the animal is said to be fully kindled. For substance screening procedures we determine the individual threshold current that induces afterdischarges at the stimulation site.
Female Wistar rats were purchased at a body weight of 200-220g (Harlan Windelmann Versuchstierzucht, Borchen, Germany) and were then kept under controlled environmental conditions (24-25°C, 50-60% humidity, 12h light / dark cycle) with free access to standard laboratory chow (Altromin 1324 standard diet) and tap water. All experiments were performed within the same day time in the morning to minimize possible effects of circadian variation. […] These animals were previously kindled and used to test other compounds. The period between the previous and current studies was long enough (at least one month) so that it was ample time for a complete washout from the previously tested drug.
For implantation of kindling electrodes, rats were anaesthetized with chloral hydrate (360 mg/kg, i/p.), the skull surface was exposed, and a bipolar electrode was implanted into the right hemisphere aimed at the basolateral amygdala using the following sterotaxic coordinates according to the atlas of Paximos and Watson (1986): 2.2 mm caudal, 4.8 mm lateral, 8.5 mm ventral (all respective to bregma). The electrodes consisted of two twisted Teflon-coated stainless steel wires (250 µm diameter) separated by 0.5 mm at the tip. A screw, which served as grounding electrode, was positioned over the left parietal cortex. Bipolar and ground electrodes were connected to plugs, and the electrode assembly and anchor screws were held in place with dental carylic cement applied to the exposed skull surface. After surgery, the rats were treated with antibiotics for 1 week to prevent infection.
Following a post-operative recovery period of two weeks, constant current stimulations (500µA, 1 msec, monophasic square-wave pulses, 50 Hz for 1 s) were delivered to the amygdala once daily (five times per week) until at least 10 sequential fully kindled stage-5 seizures were elicited. Seizure severity (SS) was scored according to Racine (1972): 1 immobility, eye closure, ear twitching, twitching of vibrissae, sniffing, facial clonus; 2 head nodding associated with more severe facial clonus; 3 clonus of one forelimb; 3.5 bilateral clonus without rearing; 4 bilateral clonus accompanied by rearing; 4.5 generalized clonic seizures without rearing and falling (e.g. because of direct loss of balance); 5 rearing and falling accompanied by generalized clonic seizures. In these fully kindled rats afterdischarge threshold (ADT) was determined by administering a series of stimulations at intervals of 1 min. increasing in steps of about 20% of the previously applied current. The afterdischarge threshold was defined as the lowest current intensity producing afterdischarge with a duration of at least 5 s.
In all experiments seizure duration and afterdischarge duration were recorded in addition to seizure severity and afterdischarge threshold. Seizure duration 1 (SD1) was the time period of limbic and/or motor seizures. Limbic seizure activity which sometimes occurred after termination of secondarily generalized seizures was not included in seizure duration. Seizure duration 2 (SD2) was the time period from stimulation until the end of postictal depression phase.
Afterdischarge duration 1 (ADD1) was defined as the period of high amplitude spiking (at least 1 Hz frequency and twice the prestimulation amplitude) in the electroencephalogram (EEG) of the BLA electrode, including the time of stimulation. […]

[4] = system: traction reflex (Tract.) impairment; assay: Traction reflex impairment (for therapeutic index); assay type: in vivo; details: therapeutic index: ED50 for traction reflex impairment divided by ED50 for MES-induced convulsions
Experimental: as §1

[5] = system: NMDA-induced currents; assay: NMDA-induced currents in patch clamp experiments; assay type: cell-based; details: at least 3 concentrations, at least 5 cells per concentration
Experimental: (§2) Effect of MRZ 2/705 on [^3H]-(+)-MK-801 binding, NMDA-induced currents in patch clamp experiments, and glutamate toxicity in cultured cortical neurones. […] IC50s (±SEM) in patch clamp and glutamate toxicity experiments were determined from data from at least 3 concentrations producing between 15 and 85% inhibition and at least 5 cells/well per concentration.

[6] = system: cultured cortical neurones; assay: Glutamate toxicity in cultured cortical neurones; assay type: cell-based; details: Cortical neurone, read-out: Glut Tox IC50
Experimental: as §2

[7] = Adverse effects in kindled rats (sedation, ataxia, rotarod test); assay type: in vivo, Female Wistar rats
Experimental: The substance MRZ 2/705 was dissolved in distilled water and administered i.p. Thereby applicated volume was 3 ml/kg body weight. dosages used in the experiments were 5, 10, and 20 mg/kg.
Animals were allowed to adapt to the laboratory environment, then body temperature was measured and animals were put into open cages for constant observation. 15 and 30 minutes following drug or vehicle administration behavioral alterations and body temperature were determined. Adverse effects were scored during observation in open cages and in an open field. In addition, rats were subjected to the rotarod test (polypropylene, foam-coated rod, 5cm in diameter, 8rpm). Animals were considered to have failed this test, when they fell from the rod in each of three consecutive 1-min. attempts.

[8] = biological target: [^3H]-(+)-MK-801 binding; assay: [3H]-(+)-MK-801 binding; details: read-out: MK-801 Ki; means of 3-5 experiments; Cheng-Prusoff, Kd for MK-801 of […]
Experimental: as §2

[9] = Minimal lethality i.p.
[10] = 20 mg/kg i.p., in a significant manner

With `CC1(C)CC(C)(C)CC(C)(N2CCCC2)C1.Cl` [MRZ 2/705, N-(1,3,3,5,5-Pentamethylcyclohexyl) pyrrolidine hydrochloride] the ED50 [1] was 9.55 mg/kg, the “TI Rot.” value [2] was 5.4 and the “average increase in afterdischarge threshold above control threshold” value (shortened to “average increase”) ([3]; 5 mg/kg i.p.) was 36%. The “average increase” value ([3]; 10 mg/kg i.p., significant) was 50%, the duration of afterdischarges [3, 10] was “reduced” and the “duration of motor seizures” value [3, 10] was “reduced”. For the same molecule, the seizure severity [3, 10] was “reduced”, the “average increase” value ([3]; 20 mg/kg i.p., significant) was 95% and the “seizure parameters (seizure severity, duration of motor seizures, duration of afterdischarges)” value ([3]; lower dosages (5 and 10 mg/kg i.p.)) was “remained unchanged or were only influenced slightly”. For the same molecule, the “TI Tract” value [4] was 3.9, the IC50 [5] was 25.4 µM and the IC50 [6] was 12.3 µM. For the same molecule, the rotarod test ([7]; 5, 10, 20 mg/kg i.p., 8 rpm, three consecutive 1-min attempts) was “no failure to pass the rotarod test was observed”, the ataxia ([7]; 10 and 20 mg/kg i.p.) was “Slight ataxia” and the sedation ([7]; all three dosages (5, 10, 20 mg/kg i.p.)) was “minor signs of sedation”. For the same molecule, the Ki [8] was 7.14 µM and the “Min I.ct-hality” value [9] was over 50 mg/kg.

Source: EP1228052B1, “1-CYCLIC AMINO-ALKYLCYCLOHEXANE COMPOUNDS, PHARMACEUTICAL COMPOSITIONS THEREOF, AND THEIR USE AS ANTICONVULSANTS” (Merz Pharma GmbH & Co. KGaA, priority 1999, dated 2001)
